Source: ChEMBL document CHEMBL4342517, “Design, Synthesis, and Mechanism Study of Benzenesulfonamide-Containing Phenylalanine Derivatives as Novel HIV-1 Capsid Inhibitors with Improved Antiviral Activities” (J Med Chem, 2020)
Calls of active or inactive are those of the source. No cut-off for these calls is given here.

Key:
[1] = system: Human immunodeficiency virus 2; test: Antiviral activity against HIV2 ROD infected in human MT4 cells assessed as reduction in virus-induced cell death incubated for 5 days by MTT assay; settings: Human immunodeficiency virus 2, ISOLATE ROD, MT4, 120 h
[2] = system: Human immunodeficiency virus 1; test: Antiviral activity against HIV1 NL4-3 infected in human TZM-bl cells assessed as reduction in virus induced cytopathogenicity incubated for 1 day by luciferase reporter gene assay; type: functional, organism-based; settings: Human immunodeficiency virus 1, NL4-3, TZM-bl, 24 h
[3] = system: MT4; test: Cytotoxicity in mock-infected human MT4 assessed as reduction in cell viability incubated for 5 days by MTT assay; type: cell-based; settings: mt4, 120 h
[4] = system: TZM; test: Cytotoxicity in uninfected human TZM-bl assessed as reduction in cell viability incubated for 1 day by Cyto-tox-Glo cytotoxicity assay; type: cell-based; settings: 24 h
[5] = system: Human immunodeficiency virus 1; test: Antiviral activity against HIV1 3B infected in human MT4 cells assessed as reduction in virus-induced cell death incubated for 5 days by MTT assay; type: functional, organism-based; settings: Human immunodeficiency virus 1, 3B, MT4, 120 h
[6] = target: Structural capsid protein (Human immunodeficiency virus 1) (UniProt Q76129); test: Inhibition of HIV1 NL4-3 capsid protein assembly at 50 uM measured every 1 min for 19 mins
[7] = system: Human immunodeficiency virus 1; test: Antiviral activity against HIV1 Env-pseudotyped virus in human U87.CD4.CCR5 target cells assessed as reduction in viral infection at early stage; type: functional, organism-based; settings: Human immunodeficiency virus 1, U87/CD4/CCR5
[8] = system: Human immunodeficiency virus 1; test: Antiviral activity against HIV1 Env-pseudotyped virus in human U87.CD4.CCR5 target cells assessed as reduction in viral infection at late stage; type: functional, organism-based; settings: Human immunodeficiency virus 1, U87/CD4/CCR5
[9] = target: T1, Structural capsid protein (Human immunodeficiency virus 1, UniProt Q76129); test: Binding affinity to HIV1 NL4-3 capsid protein monomer by SPR analysis
[10] = target: T1, Structural capsid protein; test: Binding affinity to HIV1 NL4-3 capsid protein hexamer by SPR analysis
[11] = AUC (0 to infinity) in Sprague-Dawley rat at 20 mg/kg, po measured during 5 mins to 12 hrs by LC-MS analysis; type: ADME, organism-based; design: dose 20 mg/kg, time infinity, route oral; settings: in vivo
[12] = Cmax in Sprague-Dawley rat at 2 mg/kg, iv measured during 5 mins to 12 hrs by LC-MS analysis; type: ADME, organism-based; design: dose 2 mg/kg, route intravenous; settings: in vivo
[13] = Volume of distribution in Sprague-Dawley rat at 2 mg/kg, iv measured during 5 mins to 12 hrs by LC-MS analysis; type: ADME, organism-based; settings: in vivo
[14] = Acute toxicity in Kunming mouse assessed as induction of abnormal behaviors by measuring clonic convulsion at 1000 mg/kg, ig administered as single dose; type: organism-based; settings: in vivo, po
[15] = in vitro; settings: human, liver microsomes
Description: Stability in human liver microsomes assessed as compound remaining level incubated for 60 mins in presence of NADPH regenerating system by LC-MS/MS analysis

[16] = Oral bioavailability in Sprague-Dawley rat at 20 mg/kg measured during 5 mins to 12 hrs by LC-MS analysis; type: ADME, organism-based; settings: in vivo
[17] = Stability in human plasma assessed as compound remaining level at 2 uM incubated for 120 mins at 37 degC by LC-MS/MS analysis; type: ADME, cell-free; settings: 2 h
[18] = in vitro; settings: human, liver microsomes; remark: listed apart in the source
Description: Stability in human liver microsomes assessed as compound remaining level incubated for 60 mins in absence of NADPH regenerating system by LC-MS/MS analysis

[19] = AUC (0 to t) in Sprague-Dawley rat at 2 mg/kg, iv measured during 5 mins to 12 hrs by LC-MS analysis; type: ADME, organism-based; design: dose 2 mg/kg, time 0.083-12 hr, route intravenous; settings: in vivo
[20] = in vivo; settings: Sprague-Dawley, rat, po, 20 mg/kg
[21] = Acute toxicity in Kunming mouse assessed as induction of abnormal behaviors by measuring lethargy at 1000 mg/kg, ig administered as single dose; type: organism-based; settings: in vivo, po
[22] = Clearance in Sprague-Dawley rat at 2 mg/kg, iv measured during 5 mins to 12 hrs by LC-MS analysis; type: ADME, organism-based; settings: in vivo
[23] = Half life in Sprague-Dawley rat at 2 mg/kg, iv measured during 5 mins to 12 hrs by LC-MS analysis; settings: in vivo
[24] = Cmax in Sprague-Dawley rat at 20 mg/kg, po measured during 5 mins to 12 hrs by LC-MS analysis; type: ADME, organism-based; design: dose 20 mg/kg, route oral; settings: in vivo
[25] = Acute toxicity in Kunming mouse assessed as induction of animal death at 1000 mg/kg, ig administered as single dose; type: organism-based; settings: in vivo, po
[26] = AUC (0 to infinity) in Sprague-Dawley rat at 2 mg/kg, iv measured during 5 mins to 12 hrs by LC-MS analysis; type: ADME, organism-based; design: dose 2 mg/kg, time infinity, route intravenous; settings: in vivo
[27] = Acute toxicity in Kunming mouse assessed as induction of abnormal behaviors by measuring anorexia at 1000 mg/kg, ig administered as single dose; type: organism-based; settings: in vivo, po
[28] = human, microsomes
Description: Intrinsic clearance in human liver microsomes in presence of NADPH regenerating system by LC-MS/MS analysis

[29] = Mean residence time (0 to infinity) in Sprague-Dawley rat at 2 mg/kg, iv measured during 5 mins to 12 hrs by LC-MS analysis; settings: in vivo
[30] = Mean residence time (0 to infinity) in Sprague-Dawley rat at 20 mg/kg, po measured during 5 mins to 12 hrs by LC-MS analysis; settings: in vivo
[31] = Acute toxicity in Kunming mouse assessed as induction of abnormal behaviors by measuring ruffled fur at 1000 mg/kg, ig administered as single dose; type: organism-based; settings: in vivo, po
[32] = Acute toxicity in Kunming mouse assessed as increase in body weight at 1000 mg/kg, ig administered as single dose; type: organism-based; settings: in vivo, po
[33] = in vivo; settings: Sprague-Dawley, rat, iv, 2 mg/kg
[34] = Half life in Sprague-Dawley rat at 20 mg/kg, po measured during 5 mins to 12 hrs by LC-MS analysis; settings: in vivo
[35] = human, microsomes; remark: listed apart in the source
Description: Half life in human liver microsomes in presence of NADPH regenerating system by LC-MS/MS analysis

[36] = system: Human immunodeficiency virus 1; test: Induction of increase in CA/p24 content in HIV1 NL4-3 infected in human TZM-bl cells at 10 uM by ELISA relative to control; type: functional
[37] = target: Structural capsid protein (Human immunodeficiency virus 1) (UniProt Q76129); test: Induction of HIV1 NL4-3 capsid protein assembly at 50 uM measured every 1 min for 19 mins

T1 sequence (Q76129 whole entry): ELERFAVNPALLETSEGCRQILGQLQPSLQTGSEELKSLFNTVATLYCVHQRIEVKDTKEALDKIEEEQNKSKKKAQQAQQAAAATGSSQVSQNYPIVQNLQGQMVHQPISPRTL
Structural capsid protein (Human immunodeficiency virus 1), sequence (Q76129 as listed by the source): as the sequence (Q76129 whole entry) above

SMILES: COc1ccc(N(C)C(=O)[C@H](Cc2ccccc2)NC(=O)CN2CCN(S(=O)(=O)c3ccc([N+](=O)[O-])cc3)CC2=O)cc1
- EC50 [1]: 0.16 µM
- EC50 [2]: 0.3 µM
- CC50 [3]: 8.89 µM
- CC50 [4]: > 32.8 µM
- EC50 [5]: 4.9 µM

SMILES: COc1ccc(N(C)C(=O)[C@H](Cc2ccccc2)NC(=O)CNS(=O)(=O)c2cccc(F)c2)cc1
- EC50 [1]: 20.1 µM
- inhibition [6]: Active
- EC50 [2]: 5.61 µM
- IC50 [7]: 8.22 µM
- CC50 [3]: 136 µM
- IC50 [8]: 4.2 µM
- CC50 [4]: > 40 µM
- EC50 [5]: 24.5 µM

SMILES: COc1ccc(N(C)C(=O)[C@H](Cc2ccccc2)NC(=O)CN2C(=O)Nc3ccccc3S2(=O)=O)cc1
- EC50 [1]: 2.72 µM
- inhibition [6]: Active
- EC50 [2]: 2.11 µM
- IC50 [7]: 1.94 µM
- CC50 [3]: 130 µM
- IC50 [8]: 2.44 µM
- CC50 [4]: > 38.3 µM
- EC50 [5]: 6.07 µM

SMILES: COc1ccc(N(C)C(=O)[C@H](Cc2ccccc2)NC(=O)CN2CCN(S(=O)(=O)c3cccc(N)c3)CC2=O)cc1
- EC50 [2]: 0.33 µM
- Kd [9]: 10 µM
- CC50 [4]: > 34.5 µM
- Kd [10]: 3.02 µM

SMILES: COc1ccc(N(C)C(=O)[C@H](Cc2ccccc2)NC(=O)CN2CCN(S(=O)(=O)c3ccccc3)CC2=O)cc1
- EC50 [1]: 0.032 µM
- EC50 [2]: 0.37 µM
- CC50 [3]: 109 µM
- CC50 [4]: > 35.4 µM
- EC50 [5]: 0.71 µM

SMILES: COc1ccc(N(C)C(=O)[C@H](Cc2ccccc2)NC(=O)CN2C(=O)N(CC(=O)N[C@@H](Cc3ccccc3)C(=O)N(C)c3ccc(OC)cc3)S(=O)(=O)c3cc(Cl)ccc32)cc1
- EC50 [2]: 4.77 µM
- CC50 [4]: > 22.7 µM

SMILES: COc1ccc(N(C)C(=O)[C@H](Cc2ccccc2)NC(=O)CNS(=O)(=O)c2ccc(Br)cc2)cc1
- EC50 [2]: 8.21 µM
- CC50 [4]: > 35.7 µM

SMILES: COc1ccc(N(C)C(=O)[C@H](Cc2ccccc2)NC(=O)CNS(=O)(=O)c2ccccc2)cc1
- EC50 [2]: 6.23 µM
- CC50 [4]: > 41.5 µM

SMILES: COc1ccc(N(C)C(=O)[C@H](Cc2ccccc2)NC(=O)CN2CCN(S(=O)(=O)c3ccccc3F)CC2=O)cc1
- EC50 [2]: 0.48 µM
- CC50 [4]: > 34.3 µM

SMILES: COc1ccc(N(C)C(=O)[C@H](Cc2ccccc2)NC(=O)CN2CCN(S(=O)(=O)c3ccc(N)cc3)CC2=O)cc1
- AUC [11]: 120.6 ng·h/mL
- Cmax [12]: 1280 ng/mL
- Vd [13]: 5.75 L/kg
- EC50 [1]: 0.031 µM
- Activity [14]: Non-Toxic
- remaining at 1 h [15]: 0%
- inhibition [6]: Active
- EC50 [2]: 0.09 µM
- IC50 [7]: 0.00896 µM
- F [16]: 23%
- CC50 [3]: 179 µM
- Stability [17]: 88.5%
- remaining at 1 h [18]: 93.4%
- AUC(0-t) [19]: 506 ng·h/mL
- Tmax [20]: 15 min
- IC50 [8]: 0.24 µM
- Activity [21]: Non-Toxic
- clearance [22]: 67.7 mL/min/kg
- half-life [23]: 60 min
- Cmax [24]: 83.8 ng/mL
- Activity [25]: Non-Toxic
- AUC [26]: 511.5 ng·h/mL
- Activity [27]: Non-Toxic
- CLH [28]: 342 µL/min/mg
- MRT inf [29]: 42 min
- MRT inf [30]: 108 min
- Activity [31]: Non-Toxic
- Activity [32]: Non-Toxic
- CC50 [4]: > 34.5 µM
- Tmax [33]: 4.98 min
- half-life [34]: 72 min
- EC50 [5]: 0.21 µM

SMILES: COc1ccc(N(C)C(=O)[C@H](Cc2ccccc2)NC(=O)CNS(=O)(=O)c2c(C(C)C)cc(C(C)C)cc2C(C)C)cc1
- EC50 [2]: 7.9 µM
- CC50 [4]: > 32.9 µM

SMILES: COc1ccc(N(C)C(=O)[C@H](Cc2ccccc2)NC(=O)CN2C(=O)N(CC(=O)N[C@@H](Cc3ccccc3)C(=O)N(C)c3ccc(OC)cc3)S(=O)(=O)c3cc(Br)ccc32)cc1
- EC50 [2]: 5.62 µM
- CC50 [4]: > 21.6 µM

SMILES: O=C(O)Cc1ccccc1Nc1c(Cl)cccc1Cl [DICLOFENAC]
- t1/2 [35]: 14.8 min
- CLH [28]: 93.6 µL/min/mg

SMILES: COc1ccc(N(C)C(=O)[C@H](Cc2ccccc2)NC(=O)CN2C(=O)N(CC(=O)N[C@@H](Cc3ccccc3)C(=O)N(C)c3ccc(OC)cc3)S(=O)(=O)c3cc(F)ccc32)cc1
- EC50 [2]: 3.82 µM
- Kd [9]: 0.2 µM
- CC50 [4]: > 23.1 µM
- Kd [10]: 1.3 µM

SMILES: COc1ccc(N(C)C(=O)[C@H](Cc2ccccc2)NC(=O)CNS(=O)(=O)c2ccc(OC)cc2)cc1
- EC50 [2]: 10.4 µM
- CC50 [4]: > 39.1 µM

SMILES: Cc1[nH]c2ccccc2c1CC(=O)N[C@@H](Cc1ccccc1)C(=O)N(C)c1ccccc1
- IC50 [7]: 0.056 µM
- CC50 [3]: 145 µM
- Stability [17]: 69%
- IC50 [8]: 0.23 µM
- Activity [36]: 40%
- CLH [28]: 1080.3 µL/min/mg
- Activity [37]: Active
- CC50 [4]: > 47 µM

SMILES: COc1ccc(N(C)C(=O)[C@H](Cc2ccccc2)NC(=O)CNS(=O)(=O)c2ccc(Cl)cc2)cc1
- EC50 [2]: 9.88 µM
- CC50 [4]: > 38.8 µM
